Experimental data published in US9931407B2, “Silicon based drug conjugates and methods of using same” (BlinkBio, Inc., priority 2015, dated 2018).

Experiments:
physchem = settings: buffer
[1] = Hydrolysis studies of silicon-linker constructs and conjugates (HEPES buffer, UPLC/MS)
KB cells = test: Cellular data: KB cell viability (Cell titer-glo luminescence); format: cell-based; settings: for EC50: folate free RPMI, 2 h compound incubation, wash, additional 70 h; for % Kill (48 h): percent cell kill at 48 h
Description: KB cells in culture were seeded in white clear bottom 96-well tissue culture plate at a density of 5,000 cells per well in a folate free RPMI media with 10% FBS a day prior to compound addition. Cells were counted visually with a hemocytometer and diluted accordingly to obtain the desired density. Cells were allowed to incubate for 24 hours in a humidified CO2 atmosphere in an incubator at 37° C. The spent media was aspirated and replenished with 100 μL of fresh media containing a 3-fold serial dilution of compound with concentrations ranging from 0.3 to 2000 nM and with a final DMSO concentration of 0.1%. Blank wells without compound were also treated with media containing 0.1% DMSO. […] […] At the end of 70 h, the spent media was removed and cells were washed once with fresh media and then suspended 100 μL of PBS. 100 μL of constituted Cell titer-glo reagent was added to each well and luminescence was recorded with a VICTOR plate reader according to manufacturers' protocol.

[2] = test system: Folate receptor alpha expressing KB cells; test: Imaging study demonstrating endocytosis and Si-O cleavage (confocal microscopy); format: cell-based; settings: 50 nM
Description: Example 79 as shown above contains a folate receptor targeting ligand, a spacer moiety, a siloxane core and two different fluorescent dyes (BODIPY and rhodamine) positioned on either side of the siloxane core. Folate receptor alpha expressing KB cells were grown in folic acid free media. The cells were incubated for 30 minutes on ice with 50 nM of Example 79, washed with fresh culture medium and then incubated in media at 37° C. for the desired length of time. The fate of both dyes was simultaneously monitored using confocal microscopy using Zeiss LSM 780 laser scanning microscope.

Row | Structure (SMILES) | half-life (physchem; pH 5) | half-life (physchem; pH 7.4) | further results
1 | CCOC(=O)CCC[Si](C)(C)O[Si](C)(C)CCCC(=O)O [Example 7, 4-(3-(4-ethoxy-4-oxobutyl)-1,1,3,3-tetramethyldisiloxanyl)butanoic acid] | 0.333 h | > 24 h | –
2 | CC[C@]1(O)C[C@H]2CN(CCc3c([nH]c4ccccc34)[C@@](C(=O)OC)(c3cc4c(cc3OC)N(C)[C@H]3[C@@](O)(C(=O)NCCC[Si](C)(C)O[Si](C)(C)CSc5ncc(Cn6cc(COCC(COCc7cn(Cc8cnc(SC[Si](C)(C)O[Si](C)(C)CCCNC(=O)[C@@]9(O)[C@H](O)[C@]%10(CC)C=CCN%11CC[C@@]%12(c%13cc([C@@]%14(C(=O)OC)C[C@@H]%15CN(CCc%16c%14[nH]c%14ccccc%16%14)C[C@](O)(CC)C%15)c(OC)cc%13N(C)[C@@H]9%12)[C@@H]%11%10)nc8)nn7)(COCc7cn(Cc8cnc(SC[Si](C)(C)O[Si](C)(C)CCCNC(=O)[C@@]9(O)[C@H](O)[C@]%10(CC)C=CCN%11CC[C@@]%12(c%13cc([C@@]%14(C(=O)OC)C[C@@H]%15CN(CCc%16c%14[nH]c%14ccccc%16%14)C[C@](O)(CC)C%15)c(OC)cc%13N(C)[C@@H]9%12)[C@@H]%11%10)nc8)nn7)NC(=O)CCOCCOCCOCCOCCOCCOCCNC(=O)CC[C@H](NC(=O)c7ccc(NCc8cnc9nc(N)[nH]c(=O)c9n8)cc7)C(=O)O)nn6)cn5)[C@H](O)[C@]5(CC)C=CCN6CC[C@]43[C@@H]65)C2)C1 (stereo partly shown) [Example 83] | – | – | half-life ([1]; pH 7.4): > 24 h
3 | CC(=O)NCCC[Si](C)(C)O[Si](C)(C)CSc1ncc(Cn2cc(-c3ccccc3)nn2)cn1 [Example 62, N-(3-(1,1,3,3-tetramethyl-3-(((5-((4-phenyl-1H-1,2,3-triazol-1-yl)methyl)pyrimidin-2-yl)thio)methyl)disiloxanyl)propyl)acetamide] | 0.333 h | > 3 h | –
4 | CC[C@]1(O)C[C@H]2CN(CCc3c([nH]c4ccccc34)[C@@](C(=O)OC)(c3cc4c(cc3OC)N(C)[C@H]3[C@@](O)(C(=O)NCCC[Si](C)(C)O[Si](C)(C)CSc5ncc(COCCOCCOCCn6cc(COCC(COCc7cn(CCOCCOCCOCc8cnc(SC[Si](C)(C)O[Si](C)(C)CCCNC(=O)[C@@]9(O)[C@H](O)[C@]%10(CC)C=CCN%11CC[C@@]%12(c%13cc([C@@]%14(C(=O)OC)C[C@@H]%15CN(CCc%16c%14[nH]c%14ccccc%16%14)C[C@](O)(CC)C%15)c(OC)cc%13N(C)[C@@H]9%12)[C@@H]%11%10)nc8)nn7)(COCc7cn(CCOCCOCCOCc8cnc(SC[Si](C)(C)O[Si](C)(C)CCCNC(=O)[C@@]9(O)[C@H](O)[C@]%10(CC)C=CCN%11CC[C@@]%12(c%13cc([C@@]%14(C(=O)OC)C[C@@H]%15CN(CCc%16c%14[nH]c%14ccccc%16%14)C[C@](O)(CC)C%15)c(OC)cc%13N(C)[C@@H]9%12)[C@@H]%11%10)nc8)nn7)NC(=O)CCOCCOCCOCCOCCOCCOCCNC(=O)CC[C@H](NC(=O)c7ccc(NCc8cnc9nc(N)[nH]c(=O)c9n8)cc7)C(=O)O)nn6)cn5)[C@H](O)[C@]5(CC)C=CCN6CC[C@]43[C@@H]65)C2)C1 (stereo partly shown) [Example 82] | – | – | half-life ([1]; pH 5): 1 h; half-life ([1]; pH 7.4): > 24 h; EC50 (KB cells): ~193 nM; % Kill (48 h) (KB cells): 80%
5 | C[Si](C)(CCCC(=O)O)O[Si](C)(C)c1ccccc1 [Example 1, 4-(1,1,3,3-Tetramethyl-3-phenyldisiloxanyl)butanoic acid] | 1.67 h | > 24 h | –
6 | C[Si](C)(C)O[Si](C)(C)CSc1cnccn1 [Example 31, 2-(((1,1,3,3,3-pentamethyldisiloxanyl)methyl)thio)pyrazine] | 0.5 h | – | –
7 | CC(=O)NCCC[Si](C)(C)O[Si](C)(C)CSc1ncc(COCCOCCOCCn2cc(COCC(COCc3cn(CCOCCOCCOCc4cnc(SC[Si](C)(C)O[Si](C)(C)CCCNC(C)=O)nc4)nn3)(COCc3cn(CCOCCOCCOCc4cnc(SC[Si](C)(C)O[Si](C)(C)CCCNC(C)=O)nc4)nn3)NC(C)=O)nn2)cn1 [Example 63] | 1 h | > 18 h | –
8 | CC(C)C(=O)NCCC[Si](C)(C)O[Si](C)(C)CSc1ncccn1 [Example 34, N-(3-(1,1,3,3-Tetramethyl-3-((pyrimidin-2-ylthio)methyl)disiloxanyl)propyl) isobutyramide] | 0.0333 h | > 2 h | –
9 | C[Si](C)(C)O[Si](C)(C)CSc1nccc(C(F)(F)F)n1 [Example 28, 2-(((1,1,3,3,3-pentamethyldisiloxanyl)methyl)thio)-4-(trifluoromethyl)pyrimidine] | > 2 h | – | –
10 | CC(=O)NCCC[Si](C)(C)O[Si](C)(C)CSc1ncc(Cn2cc(-c3ccc(COCC(COCc4ccc(-c5cn(Cc6cnc(SC[Si](C)(C)O[Si](C)(C)CCCNC(C)=O)nc6)nn5)cc4)(COCc4ccc(-c5cn(Cc6cnc(SC[Si](C)(C)O[Si](C)(C)CCCNC(C)=O)nc6)nn5)cc4)NC(=O)OC(C)(C)C)cc3)nn2)cn1 [Example 73, tert-butyl(1,3-bis((4-(1-((2-(((3-(3-acetamidopropyl)-1,1,3,3-tetramethyldisiloxanyl)methyl)thio)pyrimidin-5-yl)methyl)-1H-1,2,3-triazol-4-yl)benzyl)oxy)-2-(((4-(1-((2-(((3-(3-acetamidopropyl)-1,1,3,3-tetramethyldisiloxanyl)methyl)thio)pyrimidin-5-yl)methyl)-1H-1,2,3-triazol-4-yl)benzyl)oxy)methyl)propan-2-yl)carbamate] | 18 h | > 18 h | –
11 | CC(=O)NCCC[Si](C)(C)O[Si](C)(C)CCCn1cc(-c2ccccc2)nn1 [Example 69, N-(3-(1,1,3,3-tetramethyl-3-(3-(4-phenyl-1H-1,2,3-triazol-1-yl)propyl)disiloxanyl)propyl)acetamide] | 4 h | > 6 h | –
12 | C[Si](C)(COc1ncccn1)O[Si](C)(C)COc1ncccn1 [Example 15, 1,1,3,3-Tetramethyl-1,3-bis((pyrimidin-2-yloxy)methyl)disiloxane] | 0.417 h | > 4 h | –
13 | C[Si](C)(C)O[Si](C)(C)CSc1ncccn1 [Example 8, 2-(((1,1,3,3,3-Pentamethyldisiloxanyl)methyl)thio)pyrimidine] | 0.0833 h | 24 h | –
14 | CC[C@]1(O)C[C@@H]2CN(CCc3c([nH]c4ccccc34)[C@@](C(=O)OC)(c3cc4c(cc3OC)N(C)[C@H]3[C@@](O)(C(=O)NCCC[Si](C)(C)O[Si](C)(C)CSc5ncc(Cn6cc(C[C@H](NC(=O)[C@H](CC(=O)O)NC(=O)[C@H](CC(=O)O)NC(=O)[C@H](CCCNC(=N)N)NC(=O)[C@H](CC(=O)O)NC(=O)CC[C@H](NC(=O)c7ccc(NCc8cnc9nc(N)[nH]c(=O)c9n8)cc7)C(=O)O)C(=O)O)nn6)cn5)[C@H](O)[C@]5(CC)C=CCN6CC[C@]43[C@@H]65)C2)C1 [Example 81] | – | – | half-life ([1]; pH 5): 0.583 h; half-life ([1]; pH 7.4): 24 h; % Kill (48 h) (KB cells): 86%
15 | CC[C@]1(O)C[C@@H]2C[N@@](CCc3c([nH]c4ccccc34)[C@@](C(=O)OC)(c3cc4c(cc3OC)N(C)[C@H]3[C@@](O)(C(=O)NCCC[Si](C)(C)O[Si](C)(C)CSc5ncc(Cn6cc(COCCOCCOCCOCCOCCOCCNC(=O)CC[C@H](NC(=O)c7ccc(NCc8cnc9nc(N)[nH]c(=O)c9n8)cc7)C(=O)O)nn6)cn5)[C@H](O)[C@]5(CC)C=CCN6CC[C@]43[C@@H]65)C2)C1 [Example 80] | – | – | half-life ([1]; pH 5): 0.75 h; half-life ([1]; pH 7.4): 24 h; EC50 (KB cells): ~265 nM; % Kill (48 h) (KB cells): 84%
16 | CCN(CC)c1ccc2c(-c3ccc(S(=O)(=O)NCc4cnc(SC[Si](C)(C)O[Si](C)(C)CCCN5C(=O)CC(SC[C@H](NC(=O)[C@H](CNC(=O)CCC6=[N+]7C(=Cc8c(C)cc(C)n8[B-]7(F)F)C=C6)NC(=O)[C@H](CC(=O)O)NC(=O)CC[C@H](NC(=O)c6ccc(NCc7cnc8nc(N)[nH]c(=O)c8n7)cc6)C(=O)O)C(=O)O)C5=O)nc4)cc3S(=O)(=O)[O-])c3ccc(=[N+](CC)CC)cc-3oc2c1 (stereo partly shown) [Example 79] | – | – | half-life ([1]; pH 5): 1.67 h; half-life ([1]; pH 7.4): > 18 h; Cleavage of the siloxane core (color separation of the two fluorescent dyes) ([2]; 37° C., t=30 min): cleavage of the siloxane core was observed; Endocytosis of intact conjugate into the cell ([2]; 37° C., t=30 min): endocytosis of intact Example 79 into the cell was observed; Binding to the folate receptor on the cell surface (colocalization of dyes) ([2]; 30 minutes on ice, t=0): bound to the folate receptor on the cell surface
17 | Cc1cc(C)nc(SC[Si](C)(C)O[Si](C)(C)C)n1 [Example 9, 4,6-Dimethyl-2-(((1,1,3,3,3-pentamethyldisiloxanyl)methyl)thio)pyrimidine] | 0.417 h | 40 h | –
18 | Cc1ccnc(SC[Si](C)(C)O[Si](C)(C)C)n1 [Example 27, 4-Methyl-2-(((1,1,3,3,3-pentamethyldisiloxanyl)methyl)thio)pyrimidine] | 0.2 h | > 2 h | –
19 | C[Si](C)(C)O[Si](C)(C)CS(=O)(=O)c1ncccn1 [Example 10, 2-(((1,1,3,3,3-Pentamethyldisiloxanyl)methyl)sulfonyl)pyrimidine] | 0.583 h | 0.583 h | –
